What was measured:
[1] = tested on: T47D; assay: Antiproliferative activity against ERalpha positive human T47D cells assessed as inhibition of cell proliferation incubated for 72 hrs by CCK8 assay; format: functional, cell-based
[2] = target: T1, Estrogen receptor (Homo sapiens) (UniProt P03372); assay: Binding affinity to human ERalpha assessed as relative binding affinity incubated under vibration for 1 min followed by 2 hrs incubation under dark condition by fluorescence polarization assay relative to estradiol; details: time 121.0 min
T1 sequence (whole entry): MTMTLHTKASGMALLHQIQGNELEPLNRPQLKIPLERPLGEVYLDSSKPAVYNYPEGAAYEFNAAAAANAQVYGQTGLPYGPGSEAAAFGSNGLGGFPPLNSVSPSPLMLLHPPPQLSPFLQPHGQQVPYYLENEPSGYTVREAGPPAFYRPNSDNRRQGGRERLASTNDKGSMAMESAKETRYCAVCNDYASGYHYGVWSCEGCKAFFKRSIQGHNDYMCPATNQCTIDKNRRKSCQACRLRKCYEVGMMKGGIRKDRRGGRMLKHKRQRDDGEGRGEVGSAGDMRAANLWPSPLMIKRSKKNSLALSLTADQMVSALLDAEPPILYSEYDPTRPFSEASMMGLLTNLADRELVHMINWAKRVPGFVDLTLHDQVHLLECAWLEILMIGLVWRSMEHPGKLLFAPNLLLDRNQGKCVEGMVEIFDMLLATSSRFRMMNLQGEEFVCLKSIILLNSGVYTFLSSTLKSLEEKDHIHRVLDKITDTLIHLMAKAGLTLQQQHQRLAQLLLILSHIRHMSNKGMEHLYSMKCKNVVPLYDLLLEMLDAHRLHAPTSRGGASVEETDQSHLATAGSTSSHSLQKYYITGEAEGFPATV

[3] = Selectivity index, ratio of IC50 for cytotoxicity against human MCF-10A cells to IC50 for antiproliferative activity against human MCF7 cells; format: toxicity, cell-based; details: MCF-10A cells and MCF7 cells, read-out: Ratio IC50
[4] = species on record: Homo sapiens; assay: Selectivity ratio of relative binding affinity for human ERalpha to relative binding affinity to human ERbeta
[5] = tested on: MCF7; assay: Antiproliferative activity against ERalpha positive human MCF7 cells assessed as inhibition of cell proliferation incubated for 72 hrs by CCK8 assay; format: functional, cell-based; details: MCF7, 72 h
[6] = target: Estrogen receptor beta (Homo sapiens) (UniProt Q92731); assay: Binding affinity to human ERbeta assessed as relative binding affinity incubated under vibration for 1 min followed by 2 hrs incubation under dark condition by fluorescence polarization assay relative to estradiol; details: time 121.0 min
Estrogen receptor beta (Homo sapiens), sequence (Q92731 whole entry): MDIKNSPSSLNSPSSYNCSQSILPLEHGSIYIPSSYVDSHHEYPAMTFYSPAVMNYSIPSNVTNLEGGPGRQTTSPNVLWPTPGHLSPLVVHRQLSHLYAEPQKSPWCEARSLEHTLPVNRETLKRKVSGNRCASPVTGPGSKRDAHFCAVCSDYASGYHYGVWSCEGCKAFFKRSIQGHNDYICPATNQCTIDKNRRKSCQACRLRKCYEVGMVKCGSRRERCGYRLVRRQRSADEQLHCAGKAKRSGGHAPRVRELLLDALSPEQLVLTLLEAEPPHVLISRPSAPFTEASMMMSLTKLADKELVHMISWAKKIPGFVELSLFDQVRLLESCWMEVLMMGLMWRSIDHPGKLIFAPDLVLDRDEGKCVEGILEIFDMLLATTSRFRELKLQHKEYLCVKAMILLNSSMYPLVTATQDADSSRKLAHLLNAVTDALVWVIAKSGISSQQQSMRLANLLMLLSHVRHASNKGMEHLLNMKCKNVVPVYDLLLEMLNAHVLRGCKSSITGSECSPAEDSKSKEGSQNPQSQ

[7] = Cytotoxicity against human MCF-10A cells assessed as inhibition of cell proliferation incubated for 72 hrs by CCK8 assay; format: toxicity, cell-based

N#C[Se]CCCCCC(=O)Nc1ccc(C2=C(c3ccc(O)cc3)C3CC(S(=O)(=O)Oc4ccc(C(F)(F)F)cc4)C2O3)cc1 (centres undefined)
IC50 [1]: 3.02 µM | RBA [2]: 4.43% | selectivity ratio [3]: 5.72 | Selectivity ratio [4]: 2.75 | IC50 [5]: 2.84 µM | RBA [6]: 1.61% | IC50 at 72 h [7]: 16.2 µM

N#C[Se]CCCCCC(=O)Nc1ccc(C2=C(c3ccc(O)cc3)C3CC(S(=O)(=O)Oc4ccccc4)C2O3)cc1 (centres undefined)
IC50 [1]: 3.21 µM | RBA [2]: 4.72% | selectivity ratio [3]: > 49.2 | Selectivity ratio [4]: 6.05 | IC50 [5]: 1.22 µM | RBA [6]: 0.78% | IC50 at 72 h [7]: > 60 µM

N#C[Se]CCCCCC(=O)Nc1ccc(C2=C(c3ccc(O)cc3)C3CC(S(=O)(=O)Oc4ccc5ccccc5c4)C2O3)cc1 (centres undefined)
IC50 [1]: > 31 µM | RBA [2]: 4.51% | selectivity ratio [3]: 7.52 | Selectivity ratio [4]: 19.6 | IC50 [5]: 3 µM | RBA [6]: 0.23% | IC50 at 72 h [7]: 22.6 µM

COc1cccc(OS(=O)(=O)C2CC3OC2C(c2ccc(NC(=O)CCCCC[Se]C#N)cc2)=C3c2ccc(O)cc2)c1 (centres undefined)
IC50 [1]: 3.21 µM | RBA [2]: 12.1% | selectivity ratio [3]: 7.99 | Selectivity ratio [4]: 34.7 | IC50 [5]: 2.49 µM | RBA [6]: 0.35% | IC50 at 72 h [7]: 19.9 µM

Cc1ccc(OS(=O)(=O)C2CC3OC2C(c2ccc(NC(=O)CCCCC[Se]C#N)cc2)=C3c2ccc(O)cc2)cc1 (centres undefined)
IC50 [1]: 3.13 µM | RBA [2]: 3.31% | selectivity ratio [3]: 15 | Selectivity ratio [4]: 1.26 | IC50 [5]: 2.75 µM | RBA [6]: 2.63% | IC50 at 72 h [7]: 41.1 µM

N#C[Se]CCCC(=O)Nc1ccc(C2=C(c3ccc(O)cc3)C3CC(S(=O)(=O)Oc4ccccc4)C2O3)cc1 (centres undefined)
IC50 [1]: 18.1 µM | RBA [2]: 1.05% | selectivity ratio [3]: 29.7 | Selectivity ratio [4]: 0.62 | IC50 [5]: 2.02 µM | RBA [6]: 1.7% | IC50 at 72 h [7]: 59.9 µM

COc1ccc(OS(=O)(=O)C2CC3OC2C(c2ccc(NC(=O)CCCCC[Se]C#N)cc2)=C3c2ccc(O)cc2)cc1 (centres undefined)
IC50 [1]: 1.97 µM | RBA [2]: 0.97% | selectivity ratio [3]: 4.99 | Selectivity ratio [4]: 19.4 | IC50 [5]: 2.62 µM | RBA [6]: 0.05% | IC50 at 72 h [7]: 13.1 µM

Cc1cccc(OS(=O)(=O)C2CC3OC2C(c2ccc(NC(=O)CCCCC[Se]C#N)cc2)=C3c2ccc(O)cc2)c1 (centres undefined)
IC50 [1]: 13.3 µM | RBA [2]: 0.99% | selectivity ratio [3]: 42.5 | Selectivity ratio [4]: 0.77 | IC50 [5]: 0.71 µM | RBA [6]: 1.29% | IC50 at 72 h [7]: 30.2 µM

N#C[Se]CCCCCC(=O)Nc1ccc(C2=C(c3ccc(O)cc3)C3CC(S(=O)(=O)Oc4cccc(C(F)(F)F)c4)C2O3)cc1 (centres undefined)
IC50 [1]: > 31 µM | RBA [2]: 0.17% | selectivity ratio [3]: 94.1 | Selectivity ratio [4]: 0.57 | IC50 [5]: 0.57 µM | RBA [6]: 0.3% | IC50 at 72 h [7]: 53.6 µM

N#C[Se]CCCCCC(=O)Nc1ccc(C2=C(c3ccc(O)cc3)C3CC(S(=O)(=O)Oc4cccc(F)c4)C2O3)cc1 (centres undefined)
IC50 [1]: 2.05 µM | RBA [2]: 3.31% | selectivity ratio [3]: 22.4 | Selectivity ratio [4]: 6.25 | IC50 [5]: 0.78 µM | RBA [6]: 0.53% | IC50 at 72 h [7]: 17.5 µM

N#C[Se]CCCCCC(=O)Nc1ccc(C2=C(c3ccc(O)cc3)C3CC(S(=O)(=O)Oc4ccc(Br)cc4)C2O3)cc1 (centres undefined)
IC50 [1]: 120 µM | RBA [2]: 0.31% | selectivity ratio [3]: 10.1 | Selectivity ratio [4]: 0.09 | IC50 [5]: 1.85 µM | RBA [6]: 3.48% | IC50 at 72 h [7]: 18.6 µM

N#C[Se]CCCCCCOc1ccc(OS(=O)(=O)C2CC3OC2C(c2ccc(O)cc2)=C3c2ccc(O)cc2)cc1 (centres undefined)
IC50 [1]: 7.47 µM | RBA [2]: 9.98% | selectivity ratio [3]: 2.1 | Selectivity ratio [4]: 5.77 | IC50 [5]: 5.14 µM | RBA [6]: 1.73% | IC50 at 72 h [7]: 10.8 µM

N#C[Se]CCCCCC(=O)Nc1ccc(C2=C(c3ccc(O)cc3)C3CC(S(=O)(=O)Oc4ccccc4O)C2O3)cc1 (centres undefined)
IC50 [1]: 3.58 µM | RBA [2]: 30.9% | selectivity ratio [3]: 23.4 | Selectivity ratio [4]: 26.9 | IC50 [5]: 0.32 µM | RBA [6]: 1.15% | IC50 at 72 h [7]: 7.49 µM

N#C[Se]CCCCCC(=O)Nc1ccc(C2=C(c3ccc(O)cc3)C3CC(S(=O)(=O)Oc4ccccc4C(F)(F)F)C2O3)cc1 (centres undefined)
IC50 [1]: 1.77 µM | RBA [2]: 23.1% | selectivity ratio [3]: 36.9 | Selectivity ratio [4]: 10.6 | IC50 [5]: 0.35 µM | RBA [6]: 5.79% | IC50 at 72 h [7]: 12.9 µM

N#C[Se]CC(=O)Nc1ccc(C2=C(c3ccc(O)cc3)C3CC(S(=O)(=O)Oc4ccccc4)C2O3)cc1 (centres undefined)
IC50 [1]: 24.6 µM | RBA [2]: 0.57% | selectivity ratio [3]: 14 | Selectivity ratio [4]: 2.38 | IC50 [5]: 2.76 µM | RBA [6]: 0.24% | IC50 at 72 h [7]: 38.6 µM

N#C[Se]CCCCCC(=O)Nc1ccc(C2=C(c3ccc(O)cc3)C3CC(S(=O)(=O)Oc4ccccc4Cl)C2O3)cc1 (centres undefined)
IC50 [1]: 2.55 µM | RBA [2]: 8.21% | selectivity ratio [3]: 20.7 | Selectivity ratio [4]: 5.4 | IC50 [5]: 0.49 µM | RBA [6]: 1.52% | IC50 at 72 h [7]: 10.1 µM

N#C[Se]CCCCCC(=O)Nc1ccc(C2=C(c3ccc(O)cc3)C3CC(S(=O)(=O)Oc4cccc(Br)c4)C2O3)cc1 (centres undefined)
IC50 [1]: 2.84 µM | RBA [2]: 0.59% | selectivity ratio [3]: 18.5 | Selectivity ratio [4]: 1.9 | IC50 [5]: 1.23 µM | RBA [6]: 0.31% | IC50 at 72 h [7]: 22.7 µM

N#C[Se]CCCCCC(=O)Nc1ccc(C2=C(c3ccc(O)cc3)C3CC(S(=O)(=O)Oc4cccc5ccccc45)C2O3)cc1 (centres undefined)
IC50 [1]: 1.71 µM | RBA [2]: 15.5% | selectivity ratio [3]: 5.72 | Selectivity ratio [4]: 1.72 | IC50 [5]: 2.43 µM | RBA [6]: 9% | IC50 at 72 h [7]: 13.9 µM

N#C[Se]CCCCCC(=O)Nc1ccc(C2=C(c3ccc(O)cc3)C3CC(S(=O)(=O)Oc4ccc(Cl)cc4)C2O3)cc1 (centres undefined)
IC50 [1]: 3.52 µM | RBA [2]: 0.6% | selectivity ratio [3]: 8.94 | Selectivity ratio [4]: 0.23 | IC50 [5]: 1.32 µM | RBA [6]: 2.64% | IC50 at 72 h [7]: 11.8 µM

Cc1ccccc1OS(=O)(=O)C1CC2OC1C(c1ccc(NC(=O)CCCCC[Se]C#N)cc1)=C2c1ccc(O)cc1 (centres undefined)
IC50 [1]: 2.23 µM | RBA [2]: 14.1% | selectivity ratio [3]: 16.5 | Selectivity ratio [4]: 4.53 | IC50 [5]: 0.62 µM | RBA [6]: 3.12% | IC50 at 72 h [7]: 10.2 µM

N#C[Se]CCCCCCCC(=O)Nc1ccc(C2=C(c3ccc(O)cc3)C3CC(S(=O)(=O)Oc4ccccc4)C2O3)cc1 (centres undefined)
IC50 [1]: > 31 µM | RBA [2]: 0.71% | selectivity ratio [3]: 12 | Selectivity ratio [4]: 0.34 | IC50 [5]: 1.71 µM | RBA [6]: 2.06% | IC50 at 72 h [7]: 20.5 µM

COc1cc2c(c(OC)c1OC)-c1ccc(OC)c(=O)cc1[C@@H](NC(C)=O)CC2 [COLCHICINE]
IC50 [1]: 0.00028 µM | IC50 [5]: 0.001 µM

From ChEMBL document CHEMBL5360672, “Identification of Novel Dual-Target Estrogen Receptor α Degraders with Tubulin Inhibitory Activity for the Treatment of Endocrine-Resistant Breast Cancer” (J Med Chem, 2023)
